Test results: publication PMC3486884 (PLoS Pathogens, 2012)
Read-outs that look alike come from different tables or passages of the source.

Assays:
[1] = test system: HRV1A; conditions: for relative infection: n=2
[2] = test system: HRV1A; assay: microbe, parasite or virus in culture; conditions: Human rhinovirus sp.; for activity at 0.03 µM / activity at 0.1 µM / activity at 0.31 µM / activity at 0.93 µM / activity at 2.78 µM / activity at 8.33 µM / activity at 25 µM: M-HeLa, 7 h; for activity at 0.03 µM: read-out: HRV1A infection (dsRNA), 0.03 µM; for activity at 0.1 µM: read-out: HRV1A infection (dsRNA), 0.10 µM; for activity at 0.31 µM: read-out: HRV1A infection (dsRNA), 0.31 µM; for activity at 0.93 µM: read-out: HRV1A infection (dsRNA), 0.93 µM; for activity at 2.78 µM: read-out: HRV1A infection (dsRNA), 2.78 µM; for activity at 8.33 µM: read-out: HRV1A infection (dsRNA), 8.33 µM; for activity at 25 µM: read-out: HRV1A infection (dsRNA), 25.00 µM
[3] = test system: CVA21; assay: microbe, parasite or virus in culture; conditions: Coxsackievirus, CVA21, HeLa, read-out: IC50 (CVA21)
[4] = test system: CVB3; conditions: n=2
[5] = test system: HRV14; assay: microbe, parasite or virus in culture; conditions: Human rhinovirus sp., HRV14, HeLa, read-out: IC50 (HRV14)
[6] = test system: HRV14; conditions: n=2
[7] = test system: influenza virus (strain A/Puerto Rico/8/34/H1N1 depicted PR8); assay: microbe, parasite or virus in culture; conditions: unidentified influenza virus, A549, read-out: IC50 (PR8)
[8] = test system: CVB4; conditions: n=2
[9] = test system: HRV16; conditions: n=2
[10] = test system: CVA21; conditions: n=2
[11] = test system: HRV2; assay: microbe, parasite or virus in culture; conditions: Human rhinovirus sp., HRV2, HeLa, read-out: IC50 (HRV2)
[12] = test system: HRV2; conditions: n=2

Compound: CCOc1ccccc1C(=O)Nc1ccc(Cl)cc1Cl [TVB-1331]
- antiviral activity against HRV1A (structure-activity study, in words) [1]: eliminated antiviral activity
- activity at 0.03 µM [2]: 119%
- activity at 0.1 µM [2]: 118%
- activity at 0.31 µM [2]: 112%
- activity at 0.93 µM [2]: 107%
- activity at 2.78 µM [2]: 108%
- activity at 8.33 µM [2]: 106%
- activity at 25 µM [2]: 113%

Compound: COc1c(C)cccc1C(=O)Nc1ccc([N+](=O)[O-])cc1Cl [TVB-1324]
- antiviral activity against HRV1A (structure-activity study, in words) [1]: eliminated antiviral activity
- activity at 0.03 µM [2]: 104%
- activity at 0.1 µM [2]: 105%
- activity at 0.31 µM [2]: 98%
- activity at 0.93 µM [2]: 99%
- activity at 2.78 µM [2]: 88%
- activity at 8.33 µM [2]: 94%
- activity at 25 µM [2]: 107%

Compound: COc1ccc(Br)cc1C(=O)Nc1cc([N+](=O)[O-])ccc1Cl [TVB-1337]
- antiviral activity against HRV1A (structure-activity study, in words) [1]: reduced antiviral efficacy
- activity at 0.03 µM [2]: 112%
- activity at 0.1 µM [2]: 104%
- activity at 0.31 µM [2]: 107%
- activity at 0.93 µM [2]: 104%
- activity at 2.78 µM [2]: 105%
- activity at 8.33 µM [2]: 111%
- activity at 25 µM [2]: 117%

Compound: O=C(Nc1ccc([N+](=O)[O-])cc1Cl)c1cc(Cl)ccc1OCCOc1ccccc1 [TVB-1329]
- antiviral activity against HRV1A (structure-activity study, in words) [1]: did not diminish the antiviral efficacy compared to niclosamide
- relative infection ([1]; 0.1 µM): 1.00
- relative infection ([1]; 0.3 µM): 1.04
- relative infection ([1]; 0.9 µM): 1.10
- relative infection ([1]; 2.8 µM): 1.02
- relative infection ([1]; 8.3 µM): 0.59
- relative infection ([1]; 25.0 µM): 0.05
- IC50 [3]: ~26.6 µM
- relative infection ([4]; 0.1 µM): 0.97
- relative infection ([4]; 0.3 µM): 1.06
- relative infection ([4]; 0.9 µM): 1.19
- relative infection ([4]; 2.8 µM): 1.25
- relative infection ([4]; 8.3 µM): 1.07
- relative infection ([4]; 25.0 µM): 1.01
- IC50 [5]: 9.3 µM
- relative infection ([6]; 0.1 µM): 0.86
- relative infection ([6]; 0.3 µM): 0.87
- relative infection ([6]; 0.9 µM): 0.97
- relative infection ([6]; 2.8 µM): 0.86
- relative infection ([6]; 8.3 µM): 0.58
- relative infection ([6]; 25.0 µM): 0.10
- IC50 [7]: 10.3 µM
- relative infection ([8]; 0.1 µM): 1.12
- relative infection ([8]; 0.3 µM): 1.28
- relative infection ([8]; 0.9 µM): 1.51
- relative infection ([8]; 2.8 µM): 1.62
- relative infection ([8]; 8.3 µM): 1.33
- relative infection ([8]; 25.0 µM): 0.46
- relative infection ([9]; 0.1 µM): 0.84
- relative infection ([9]; 0.3 µM): 0.98
- relative infection ([9]; 0.9 µM): 1.04
- relative infection ([9]; 2.8 µM): 1.26
- relative infection ([9]; 8.3 µM): 0.99
- relative infection ([9]; 25.0 µM): 0.14
- relative infection ([10]; 0.1 µM): 0.86
- relative infection ([10]; 0.3 µM): 0.97
- relative infection ([10]; 0.9 µM): 1.08
- relative infection ([10]; 2.8 µM): 1.13
- relative infection ([10]; 8.3 µM): 1.29
- relative infection ([10]; 25.0 µM): 0.68
- IC50 [11]: 5.07 µM
- relative infection ([12]; 0.1 µM): 1.03
- relative infection ([12]; 0.3 µM): 1.10
- relative infection ([12]; 0.9 µM): 0.98
- relative infection ([12]; 2.8 µM): 0.68
- relative infection ([12]; 8.3 µM): 0.36
- relative infection ([12]; 25.0 µM): 0.02
- IC50 ([2]; HeLa, read-out: IC50 (HRV1A)): 9.34 µM
- activity at 0.03 µM [2]: 112%
- activity at 0.1 µM [2]: 112%
- activity at 0.31 µM [2]: 119%
- activity at 0.93 µM [2]: 123%
- activity at 2.78 µM [2]: 111%
- activity at 8.33 µM [2]: 47%
- activity at 25 µM [2]: 6%

Compound: O=C(Nc1ccc(NS(=O)(=O)c2ccccc2)cc1Cl)c1cc(Cl)ccc1O [TVB-1336]
- antiviral activity against HRV1A (structure-activity study, in words) [1]: eliminated antiviral activity
- activity at 0.03 µM [2]: 102%
- activity at 0.1 µM [2]: 97%
- activity at 0.31 µM [2]: 105%
- activity at 0.93 µM [2]: 105%
- activity at 2.78 µM [2]: 104%
- activity at 8.33 µM [2]: 105%
- activity at 25 µM [2]: 103%

Compound: COC(=O)c1ccc(Cl)c(NC(=O)c2ccccc2OC)c1 [TVB-1325]
- antiviral activity against HRV1A (structure-activity study, in words) [1]: reduced antiviral efficacy
- activity at 0.03 µM [2]: 91%
- activity at 0.1 µM [2]: 97%
- activity at 0.31 µM [2]: 86%
- activity at 0.93 µM [2]: 95%
- activity at 2.78 µM [2]: 83%
- activity at 8.33 µM [2]: 73%
- activity at 25 µM [2]: 80%

Compound: CCOc1ccccc1C(=O)Nc1ccc([N+](=O)[O-])cc1Cl [TVB-1328]
- antiviral activity against HRV1A (structure-activity study, in words) [1]: eliminated antiviral activity
- activity at 0.03 µM [2]: 99%
- activity at 0.1 µM [2]: 90%
- activity at 0.31 µM [2]: 86%
- activity at 0.93 µM [2]: 89%
- activity at 2.78 µM [2]: 90%
- activity at 8.33 µM [2]: 95%
- activity at 25 µM [2]: 107%

Compound: CCC(=O)Nc1ccc(Cl)c(NC(=O)c2ccccc2OC)c1 [TVB-1327]
- antiviral activity against HRV1A (structure-activity study, in words) [1]: reduced antiviral efficacy
- activity at 0.03 µM [2]: 118%
- activity at 0.1 µM [2]: 118%
- activity at 0.31 µM [2]: 110%
- activity at 0.93 µM [2]: 107%
- activity at 2.78 µM [2]: 96%
- activity at 8.33 µM [2]: 107%
- activity at 25 µM [2]: 115%

Compound: COc1ccccc1C(=O)Nc1ccc(C(F)(F)F)cc1Cl [TVB-1323]
- antiviral activity against HRV1A (structure-activity study, in words) [1]: reduced antiviral efficacy
- activity at 0.03 µM [2]: 101%
- activity at 0.1 µM [2]: 95%
- activity at 0.31 µM [2]: 97%
- activity at 0.93 µM [2]: 97%
- activity at 2.78 µM [2]: 106%
- activity at 8.33 µM [2]: 108%
- activity at 25 µM [2]: 113%

Compound: Nc1ccc(NC(=O)c2cc(Cl)ccc2O)c(Cl)c1 [TVB-1335]
- antiviral activity against HRV1A (structure-activity study, in words) [1]: eliminated antiviral activity
- activity at 0.03 µM [2]: 109%
- activity at 0.1 µM [2]: 102%
- activity at 0.31 µM [2]: 103%
- activity at 0.93 µM [2]: 105%
- activity at 2.78 µM [2]: 98%
- activity at 8.33 µM [2]: 96%
- activity at 25 µM [2]: 104%

Compound: COc1ccc(Cl)cc1C(=O)Nc1cc([N+](=O)[O-])ccc1Cl [TVB-1330]
- antiviral activity against HRV1A (structure-activity study, in words) [1]: reduced antiviral efficacy
- activity at 0.03 µM [2]: 101%
- activity at 0.1 µM [2]: 103%
- activity at 0.31 µM [2]: 99%
- activity at 0.93 µM [2]: 97%
- activity at 2.78 µM [2]: 101%
- activity at 8.33 µM [2]: 105%
- activity at 25 µM [2]: 111%

Compound: COc1ccccc1C(=O)Nc1ccc([N+](=O)[O-])cc1Cl [TVB-1333]
- antiviral activity against HRV1A (structure-activity study, in words) [1]: eliminated antiviral activity
- activity at 0.03 µM [2]: 112%
- activity at 0.1 µM [2]: 99%
- activity at 0.31 µM [2]: 107%
- activity at 0.93 µM [2]: 92%
- activity at 2.78 µM [2]: 84%
- activity at 8.33 µM [2]: 157%
- activity at 25 µM [2]: 207%
